# Data as given in publication PMC10836395, “Investigation of how gate residues in the main channel affect the catalytic activity of Scytalidium thermophilum catalase” (Acta Crystallographica. Section D, Structural Biology, 2024).
# Like-named read-outs stand apart in the source and are kept apart here. Marks after values point to notes of the source that are not given here.
# What was measured:
# [1] = molecular target: T1, CATPO E484A variant (Scytalidium thermophilum (Humicola insolens), UniProt M4GGR5, E503A); assay: Substrate-specificity analysis of the phenol oxidase activity; assay type: biochemical; settings: for K m: pH 7.0 (ABTS pH 5.0), 60°C
# [2] = molecular target: T2, CATPO E484I variant (Scytalidium thermophilum (Humicola insolens), UniProt M4GGR5, E503I); assay: biochemical
# [3] = molecular target: T3, CATPO E484D variant (Scytalidium thermophilum (Humicola insolens), UniProt M4GGR5, E503D); assay: biochemical
# [4] = molecular target: T2, CATPO E484I variant; assay type: biochemical; settings: for K m: pH 7.0 (ABTS pH 5.0), 60°C
# [5] = molecular target: T3, CATPO E484D variant; assay type: biochemical; settings: for K m: pH 7.0 (ABTS pH 5.0), 60°C
# [6] = molecular target: T4, CATPO T188F variant (Scytalidium thermophilum (Humicola insolens), UniProt M4GGR5, T207F); assay type: biochemical; settings: for K m: pH 7.0 (ABTS pH 5.0), 60°C
# [7] = molecular target: T5, CATPO T188I variant (Scytalidium thermophilum (Humicola insolens), UniProt M4GGR5, T207I); assay type: biochemical; settings: for K m: pH 7.0 (ABTS pH 5.0), 60°C
# [8] = molecular target: T4, CATPO T188F variant; assay: biochemical
# [9] = molecular target: T6, CATPO T188D variant (Scytalidium thermophilum (Humicola insolens), UniProt M4GGR5, T207D); assay type: biochemical; settings: for K m: pH 7.0 (ABTS pH 5.0), 60°C
# [10] = molecular target: T7, CATPO (Scytalidium thermophilum (Humicola insolens), UniProt M4GGR5); assay: Substrate-specificity analysis of the phenol oxidase activity; assay type: biochemical
# [11] = molecular target: T1, CATPO E484A variant; assay: biochemical
# [12] = molecular target: T7, CATPO; assay: Inhibition of catechol oxidation; assay type: biochemical
# [13] = molecular target: T8, CATPO T188A variant (Scytalidium thermophilum (Humicola insolens), UniProt M4GGR5, T207A); assay: biochemical
# [14] = molecular target: T5, CATPO T188I variant; assay: biochemical
# [15] = molecular target: T6, CATPO T188D variant; assay: biochemical
# [16] = molecular target: T8, CATPO T188A variant; assay type: biochemical; settings: for K m: pH 7.0 (ABTS pH 5.0), 60°C
# T6 sequence (M4GGR5 entry or part of it T207D): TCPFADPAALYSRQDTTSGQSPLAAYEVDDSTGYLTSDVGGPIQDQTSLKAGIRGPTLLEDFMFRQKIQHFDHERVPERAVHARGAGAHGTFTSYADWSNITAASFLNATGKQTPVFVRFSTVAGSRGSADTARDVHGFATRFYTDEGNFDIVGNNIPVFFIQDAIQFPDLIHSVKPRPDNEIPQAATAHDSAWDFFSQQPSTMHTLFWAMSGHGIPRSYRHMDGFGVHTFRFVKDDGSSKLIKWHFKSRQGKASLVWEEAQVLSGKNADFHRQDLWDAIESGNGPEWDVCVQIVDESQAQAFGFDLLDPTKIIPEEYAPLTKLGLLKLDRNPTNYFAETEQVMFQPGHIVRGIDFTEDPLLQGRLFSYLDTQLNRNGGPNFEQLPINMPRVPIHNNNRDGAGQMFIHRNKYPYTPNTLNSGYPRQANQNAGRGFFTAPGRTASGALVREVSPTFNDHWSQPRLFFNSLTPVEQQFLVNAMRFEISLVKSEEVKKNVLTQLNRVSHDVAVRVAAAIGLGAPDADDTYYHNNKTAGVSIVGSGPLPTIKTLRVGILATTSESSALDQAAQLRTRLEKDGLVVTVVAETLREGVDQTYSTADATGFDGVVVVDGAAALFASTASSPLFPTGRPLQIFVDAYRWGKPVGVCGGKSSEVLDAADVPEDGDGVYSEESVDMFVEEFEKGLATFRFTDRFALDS
# T4 sequence (M4GGR5 entry or part of it T207F): as the sequence (M4GGR5 entry or part of it T207D) above
# T3 sequence (M4GGR5 entry or part of it E503D): as the sequence (M4GGR5 entry or part of it T207D) above
# T8 sequence (M4GGR5 entry or part of it T207A): as the sequence (M4GGR5 entry or part of it T207D) above
# T2 sequence (M4GGR5 entry or part of it E503I): as the sequence (M4GGR5 entry or part of it T207D) above
# T5 sequence (M4GGR5 entry or part of it T207I): as the sequence (M4GGR5 entry or part of it T207D) above
# T1 sequence (M4GGR5 entry or part of it E503A): as the sequence (M4GGR5 entry or part of it T207D) above
# T7 sequence (M4GGR5 entry or part of it): as the sequence (M4GGR5 entry or part of it T207D) above
Compound,V max [1] [mM/min],k cat/K m [1],K m [1] [mM],Ki [2] [mM],Ki [3] [mM],V max [4] [mM/min],k cat/K m [4],K m [4] [mM],V max [5] [mM/min],k cat/K m [5],K m [5] [mM],V max [6] [mM/min],k cat/K m [6],K m [6] [mM],V max [7] [mM/min],k cat/K m [7],K m [7] [mM],Ki [8] [mM],V max [9] [mM/min],k cat/K m [9],also measured
"Cc1ccc(O)c(O)c1 [4-Methylcatechol, 4-methylcatechol]",75500 ± 550,10100 ± 90 s^−1 M^−1 (×10^2),33 ± 1.0,46 ± 2,1.5 ± 0.1,41500 ± 840,5480 ± 80 s^−1 M^−1 (×10^2),35 ± 0.7,20600 ± 712,1500 ± 88 s^−1 M^−1 (×10^2),36 ± 0.1,54150 ± 800,6570 ± 560 s^−1 M^−1 (×10^2),32 ± 1.0,43000 ± 900,6600 ± 600 s^−1 M^−1 (×10^2),34 ± 1.2,45 ± 4.8,28000 ± 970,7620 ± 100 s^−1 M^−1 (×10^2),"K m [9]: 30 ± 0.1 mM; V max [10]: 21320 ± 845 mM/min; k cat/K m [10]: 1580 ± 110 s^−1 M^−1 (×10^2); Ki [11]: 55 ± 5 mM; Ki ([12]; catechol oxidation by CATPO, catechol 1 to 100 mM, read-out: K i): 1.5 ± 0.4 mM; Ki [13]: 1.5 ± 0.4 mM; Ki [14]: 40 ± 2.4 mM; Ki [15]: 50 ± 2.5 mM; V max [16]: 21000 ± 880 mM/min; k cat/K m [16]: 1640 ± 210 s^−1 M^−1 (×10^2); K m [16]: 35 ± 1.0 mM"
"Oc1ccc(O)cc1 [Hydroquinone, p-hydroquinone]",17800 ± 100,600 ± 40 s^−1 M^−1 (×10^2),43 ± 1.2,70 ± 3.5,8.5 ± 1.4,10000 ± 100,460 ± 20 s^−1 M^−1 (×10^2),45 ± 1.3,9900 ± 125,300 ± 50 s^−1 M^−1 (×10^2),46 ± 0.8,13000 ± 140,530 ± 65 s^−1 M^−1 (×10^2),42 ± 1.0,11000 ± 110,490 ± 78 s^−1 M^−1 (×10^2),44 ± 0.4,76 ± 5.1,9600 ± 65,480 ± 64 s^−1 M^−1 (×10^2),"K m [9]: 46 ± 1.0 mM; V max [10]: 10000 ± 300 mM/min; k cat/K m [10]: 750 ± 50 s^−1 M^−1 (×10^2); K m ([10]; pH 7.0 (ABTS pH 5.0), 60°C): 45 ± 1.5 mM; Ki [11]: 81 ± 4.7 mM; Ki [12]: 8.5 ± 0.5 mM; Ki [13]: 8.6 ± 0.6 mM; Ki [14]: 70 ± 4 mM; Ki [15]: 66 ± 5.5 mM; V max [16]: 9850 ± 85 mM/min; k cat/K m [16]: 300 ± 30 s^−1 M^−1 (×10^2); K m [16]: 46 ± 0.4 mM"
